“Also recorded” adds a separate entry of the source.
Tests used:
[1] = system: MDCKII-WT cells; experiment: WST-1 cell proliferation assay (cytotoxicity), MDCKII-WT; assay type: cell-based, canine; conditions: WST-1, 48 h; for IC50: IC50 = 50% reduced cell viability, mean ± SEM, N = 3
Procedure: (§1) The MDCKII-hABCG2 and MDCKII-WT cells were purchased from Alfred Schinkel (Het Nederlands Kanker Instituut, Amsterdam, The Netherlands) and were cultivated in MEM (minimal essential medium) with Earle’s Salts (2.2 g/L NaHCO3, stable glutamine; Biowest, Nuaillé, France) supplemented with 10% (v/v) fetal calf serum (Life Technology, Karlsruhe, Germany), 1% (v/v) non-essential amino acids (Biowest, Nuaillé, France), 100 U/mL penicillin, and 100 µg/mL streptomycin (Biowest, Nuaillé, France). The cells were grown in a humidified atmosphere (37 °C, 5% CO2) and were sub-cultured every 3 to 4 days using 0.05% trypsin/0.02% EDTA (Biowest, Nuaillé, France), up to a total of 14 passages.
(§2) MDCKII-hABCG2 cells and their parental MDCKII-WT cells were seeded in 96-well plates (TPP, Trasadingen, Switzerland) in a density of 2 × 10^4 cells/mL and 3 × 10^4 cells/mL, respectively. After 48 h, the cells were incubated with increasing concentrations of up to 50 µM of the novel synthesized compounds, with 0.1% Triton X-100 as the positive control and solvent (0.1% DMSO) as the negative control for 48 h. Afterwards, the substance-specific cytotoxicity was determined by the water-soluble tetrazolium-1 (4-[3-(4-iodophenyl)-2-(4-nitro-phenyl)-2H-5-tetrazolio]-1,3-benzene sulfonate; WST-1) assay as previously described. The cell viability was determined by microplate reader at 450 nm (Tecan Sunrise, Crailsheim, Germany). The data of three independent experiments (N = 3) were tested for normality with the Shapiro-Wilk test. The significant differences compared to solvent control were analyzed by one-way ANOVA with the Holm-Šidák post hoc test using SigmaPlot 14.5 (Systec Software, San Jose, CA, USA). The data were normalized against the vehicle control (0.1% DMSO) and were expressed as mean ± SEM.

[2] = system: MDCKII-hABCG2 cells; experiment: WST-1 cell proliferation assay (cytotoxicity), MDCKII-hABCG2; assay type: cell-based, canine; conditions: for cell viability: MDCKII-hABCG2, highest concentration 50 µM, 48 h; for IC50: WST-1, 48 h, IC50 = 50% reduced cell viability, mean ± SEM, N = 3
Procedure: as §1, §2

[3] = target: T1, human ABCG2 transporter (Homo sapiens, UniProt Q9UNQ0); experiment: Hoechst 33342 accumulation assay (MDCKII-hABCG2 vs MDCKII-WT); assay type: cell-based; conditions: for intracellular Hoechst 33342 accumulation / inhibition of ABCG2-mediated Hoechst efflux: 0.5 and 1.0 µM compound, Ko143 1 µM, 4 h, vs solvent control; for inhibition of human ABCG2 transporter in Hoechst 33342 accumulation assay: 0.5 µM
T1 construct: expressed in transfected cells; host or cells: MDCKII (Madin-Darby canine kidney) cells transfected with human ABCG2
T1 sequence (Q9UNQ0 1-655): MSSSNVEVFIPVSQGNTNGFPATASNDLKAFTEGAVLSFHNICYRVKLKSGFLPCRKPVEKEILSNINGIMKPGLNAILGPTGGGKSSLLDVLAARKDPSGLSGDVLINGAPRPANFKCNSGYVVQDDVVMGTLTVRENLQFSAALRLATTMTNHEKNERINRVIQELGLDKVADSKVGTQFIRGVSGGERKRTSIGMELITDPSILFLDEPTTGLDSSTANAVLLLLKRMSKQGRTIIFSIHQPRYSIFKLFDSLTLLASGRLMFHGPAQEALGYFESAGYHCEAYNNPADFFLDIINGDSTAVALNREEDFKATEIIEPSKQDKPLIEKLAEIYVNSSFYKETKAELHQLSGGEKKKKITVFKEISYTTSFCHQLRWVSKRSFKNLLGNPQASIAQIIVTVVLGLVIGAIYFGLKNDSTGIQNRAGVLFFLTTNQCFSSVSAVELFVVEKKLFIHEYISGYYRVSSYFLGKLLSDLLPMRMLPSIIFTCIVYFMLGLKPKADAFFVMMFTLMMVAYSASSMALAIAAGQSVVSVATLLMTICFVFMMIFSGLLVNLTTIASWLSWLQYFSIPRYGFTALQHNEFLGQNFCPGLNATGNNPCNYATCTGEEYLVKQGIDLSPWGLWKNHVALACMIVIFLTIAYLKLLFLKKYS
Procedure: The Hoechst 33342 accumulation assay was used to detect an interaction of the investigated compounds with the human ABCG2 transporter. The assay protocol was adapted from that published by Wassermann et al.. The MDCKII-hABCG2 (2 × 10^4 cells/mL) and MDCKII-WT (3 × 10^4 cells/mL) cells were seeded in 96-well plates and cultured for 72 h. Afterwards, the sub-confluent monolayers were treated with 0.5 µM and 1.0 µM of the investigational compounds or its respective solvent control (0.1% DMSO) for 4 h. […] After 5 and 20 min, the cells were washed twice with ice-cold PBS buffer solution and lyzed with 100 µL/well 0.1% (v/v) SDS/PBS. The intracellular Hoechst 33342 amount was detected by spectrofluorometry (360 nm excitation/465 nm emission wavelengths, Tecan Infinite F200 Pro, Crailsheim, Germany). The examined fluorescence subtracted by the background of non-treated cells was correlated to the protein amount quantified by the bicinchoninic acid assay (BCA, Thermo Scientific, Rockford, IL, USA) following the manufacturer’s instructions. Relative fluorescence units (RFU) were calculated as the relation of fluorescence/mg protein of MDCKII-hABCG2 cells to MDCKII-WT cells, normalized to the solvent control set as 1 and expressed as mean ± SEM. The data from the Hoechst 3342 accumulation assay (five independent experiments N = 5) were tested for normality with the Shapiro-Wilk test. Significant differences compared to the solvent control were analyzed by one-way ANOVA with the Holm-Šidák post hoc test using SigmaPlot 14.5 (Systec Software, San Jose, CA, USA). An inhibition of human ABCG2 efflux transport activity is defined as the significant difference to the solvent control (0.1% DMSO).

[4] = system: MDCKII-hABCG2 cells; experiment: Reversal of ABCG2-mediated mitoxantrone resistance (WST-1); assay type: cell-based, canine; conditions: for Left-Shift Factor: MDCKII-hABCG2, MXN + 1 µM compound, (IC50 minus SEM of MXN alone) by (IC50 plus SEM of combination)
Procedure: Afterwards, the WST-1 assay was performed as described. […] All data were normalized against the vehicle control and were expressed as mean ± SEM, calculated from at least three independent experiments.

Row | Substance | IC50 [1] | cell viability [2] | IC50 [2] | intracellular Hoechst 33342 accumulation / inhibition of ABCG2-mediated Hoechst efflux [3] | decreased cell viability ([1]; MDCKII-WT) | Left-Shift Factor [4] | decreased cell viability ([2]; MDCKII-hABCG2, WST-1, 48 h, up to 50 µM) | inhibition of human ABCG2 transporter in Hoechst 33342 accumulation assay [3] | reversal of MXN resistance ([4]; MDCKII-hABCG2, 1 µM compound with MXN)
1 | N-(closo-1,7-dicarbadodecaboran(12)-9-yl)-2-(4-methoxyphenyl)-quinazolin-4-amine [QCb] | 44.17 ± 0.174 µM | 30% | > 10 µM | did not affect the human ABCG2-mediated Hoechst efflux |  |  |  |  | 
2 | N-(closo-1,7-dicarbadodecaboran(12)-9-yl)-6,7-dimethoxy-2-(4-methoxy-phenyl)quinazolin-4-amine [DMQCb] | > 25 µM |  | > 25 µM | only marginal increases in Hoechst 33342 accumulation; also recorded: no significant inhibition | ~30% | 7.2-fold |  |  | 
3 | N-(closo-1,7-dicarbadodecaboran(12)-9-yl)-2-(3,4-dimethoxyphenyl)-quinazolin-4-amine [QCc] | > 50 µM |  | > 50 µM | the only compound exhibiting inhibition within the tested concentration range |  | 5.4-fold | about 40% | inhibited the human ABCG2 transporter | able to reverse MXN resistance
4 | N-(closo-1,7-dicarbadodecaboran(12)-9-yl)-2-phenylquinazolin-4-amine [QCa] | 43.23 ± 0.159 µM | 30% | > 10 µM | did not affect the human ABCG2-mediated Hoechst efflux |  |  |  |  | 
5 | N-(closo-1,7-dicarbadodecaboran(12)-9-yl)-6,7-dimethoxy-2-(3,4-dimethoxy-phenyl)-quinazolin-4-amine [DMQCc] | > 50 µM |  | > 50 µM | only marginal increases in Hoechst 33342 accumulation; also recorded: no significant inhibition |  | 9.8-fold |  |  | 
6 | N-(closo-1,7-dicarbadodecaboran(12)-9-yl)-6,7-dimethoxy-2-(3,4,5-trimethoxyphenyl)-quinazolin-4-amine [DMQCd] | > 50 µM |  | > 50 µM | strongest inhibition at 0.5 µM with a comparable level as the reference Ko143 |  |  |  | inhibited the human ABCG2 transporter | 
7 | N-(closo-1,7-dicarbadodecaboran(12)-9-yl)-2-(3,4,5-trimethoxyphenyl)-quinazolin-4-amine [QCd] | > 50 µM |  | > 50 µM | did not affect the human ABCG2-mediated Hoechst efflux |  |  |  |  | 
8 | N-(closo-1,7-dicarbadodecaboran(12)-9-yl)-6,7-dimethoxy-2-phenyl-quinazolin-4-amine [DMQCa] | > 50 µM |  | > 50 µM | improved inhibitory potency at 1.0 µM |  | 4.3-fold |  |  | 
